Source: ChEMBL document CHEMBL4152326 (2018)

Test system: Pseudomonas aeruginosa
Assay: Antimicrobial activity against Pseudomonas aeruginosa SR24 in presence of human apo-transferrin by broth microdilution method
Assay type: functional

| SMILES | MIC [µg/mL] |
| --- | --- |
| C[N+]1(CC2=C(C(=O)[O-])N3C(=O)[C@@H](NC(=O)/C(=N\O[C@@H](CNC(=O)c4ccc(O)c(O)c4Cl)C(=O)O)c4csc(N)n4)[C@H]3SC2)CCCC1 | 0.125 |
| NCC[N+]1(CC2=C(C(=O)[O-])N3C(=O)[C@@H](NC(=O)/C(=N\OC[C@H](NC(=O)c4ccc(O)c(O)c4Cl)C(=O)O)c4csc(N)n4)[C@H]3SC2)CCCC1 | 0.125 |
| CC(C)(O/N=C(\C(=O)N[C@@H]1C(=O)N2C(C(=O)[O-])=C(C[N+]3(C)C[C@H]4C[C@@H]3CN4C(=O)c3ccc(O)c(O)c3Cl)CS[C@H]12)c1csc(N)n1)C(=O)O (some centres undefined) | 0.25 |
| COc1c(O)ccc(C(=O)NCC[N+]2(CC3=C(C(=O)[O-])N4C(=O)[C@@H](NC(=O)/C(=N\OC(C)(C)C(=O)O)c5csc(N)n5)[C@H]4SC3)CCCC2)c1Cl | 2 |
| CC(C)(O/N=C(\C(=O)N[C@@H]1C(=O)N2C(C(=O)[O-])=C(C[N+]3(CCN)CCCC3)CS[C@H]12)c1csc(N)n1)C(=O)O | 2 |
| CC(C)(O/N=C(\C(=O)N[C@@H]1C(=O)N2C(C(=O)[O-])=C(C[N+]34CCC(CC3)N(C(=O)c3ccc(O)c(O)c3Cl)CC4)CS[C@H]12)c1csc(N)n1)C(=O)O | 0.25 |

Test system: Pseudomonas aeruginosa
Assay: Antimicrobial activity against AmpC overproducing Pseudomonas aeruginosa SR24-12 in presence of human apo-transferrin by broth microdilution method
Assay type: functional

| SMILES | MIC [µg/mL] |
| --- | --- |
| C[N+]1(CC2=C(C(=O)[O-])N3C(=O)[C@@H](NC(=O)/C(=N\O[C@@H](CNC(=O)c4ccc(O)c(O)c4Cl)C(=O)O)c4csc(N)n4)[C@H]3SC2)CCCC1 | 0.5 |
| NCC[N+]1(CC2=C(C(=O)[O-])N3C(=O)[C@@H](NC(=O)/C(=N\OC[C@H](NC(=O)c4ccc(O)c(O)c4Cl)C(=O)O)c4csc(N)n4)[C@H]3SC2)CCCC1 | 0.25 |
| CC(C)(O/N=C(\C(=O)N[C@@H]1C(=O)N2C(C(=O)[O-])=C(C[N+]3(C)C[C@H]4C[C@@H]3CN4C(=O)c3ccc(O)c(O)c3Cl)CS[C@H]12)c1csc(N)n1)C(=O)O (some centres undefined) | 0.5 |
| COc1c(O)ccc(C(=O)NCC[N+]2(CC3=C(C(=O)[O-])N4C(=O)[C@@H](NC(=O)/C(=N\OC(C)(C)C(=O)O)c5csc(N)n5)[C@H]4SC3)CCCC2)c1Cl | 8 |
| CC(C)(O/N=C(\C(=O)N[C@@H]1C(=O)N2C(C(=O)[O-])=C(C[N+]3(CCN)CCCC3)CS[C@H]12)c1csc(N)n1)C(=O)O | 8 |
| CC(C)(O/N=C(\C(=O)N[C@@H]1C(=O)N2C(C(=O)[O-])=C(C[N+]34CCC(CC3)N(C(=O)c3ccc(O)c(O)c3Cl)CC4)CS[C@H]12)c1csc(N)n1)C(=O)O | 0.25 |

Test system: Pseudomonas aeruginosa
Assay: Antimicrobial activity against IMP-1 producing Pseudomonas aeruginosa SR27001 in presence of human apo-transferrin by broth microdilution method
Assay type: functional

| SMILES | MIC [µg/mL] |
| --- | --- |
| C[N+]1(CC2=C(C(=O)[O-])N3C(=O)[C@@H](NC(=O)/C(=N\O[C@@H](CNC(=O)c4ccc(O)c(O)c4Cl)C(=O)O)c4csc(N)n4)[C@H]3SC2)CCCC1 | 8 |
| NCC[N+]1(CC2=C(C(=O)[O-])N3C(=O)[C@@H](NC(=O)/C(=N\OC[C@H](NC(=O)c4ccc(O)c(O)c4Cl)C(=O)O)c4csc(N)n4)[C@H]3SC2)CCCC1 | 0.25 |
| CC(C)(O/N=C(\C(=O)N[C@@H]1C(=O)N2C(C(=O)[O-])=C(C[N+]3(C)C[C@H]4C[C@@H]3CN4C(=O)c3ccc(O)c(O)c3Cl)CS[C@H]12)c1csc(N)n1)C(=O)O (some centres undefined) | 2 |
| COc1c(O)ccc(C(=O)NCC[N+]2(CC3=C(C(=O)[O-])N4C(=O)[C@@H](NC(=O)/C(=N\OC(C)(C)C(=O)O)c5csc(N)n5)[C@H]4SC3)CCCC2)c1Cl | 32 |
| CC(C)(O/N=C(\C(=O)N[C@@H]1C(=O)N2C(C(=O)[O-])=C(C[N+]3(CCN)CCCC3)CS[C@H]12)c1csc(N)n1)C(=O)O | 32 |
| CC(C)(O/N=C(\C(=O)N[C@@H]1C(=O)N2C(C(=O)[O-])=C(C[N+]34CCC(CC3)N(C(=O)c3ccc(O)c(O)c3Cl)CC4)CS[C@H]12)c1csc(N)n1)C(=O)O | 1 |

Test system: Pseudomonas aeruginosa
Assay: Antimicrobial activity against VIM-2 producing Pseudomonas aeruginosa SBRKM-28 in presence of human apo-transferrin by broth microdilution method
Assay type: functional

| SMILES | MIC [µg/mL] |
| --- | --- |
| CC(C)(O/N=C(\C(=O)N[C@@H]1C(=O)N2C(C(=O)[O-])=C(C[N+]3(C)C[C@H]4C[C@@H]3CN4C(=O)c3ccc(O)c(O)c3Cl)CS[C@H]12)c1csc(N)n1)C(=O)O (some centres undefined) | 0.25 |
| COc1c(O)ccc(C(=O)NCC[N+]2(CC3=C(C(=O)[O-])N4C(=O)[C@@H](NC(=O)/C(=N\OC(C)(C)C(=O)O)c5csc(N)n5)[C@H]4SC3)CCCC2)c1Cl | 16 |
| CC(C)(O/N=C(\C(=O)N[C@@H]1C(=O)N2C(C(=O)[O-])=C(C[N+]34CCC(CC3)N(C(=O)c3ccc(O)c(O)c3Cl)CC4)CS[C@H]12)c1csc(N)n1)C(=O)O | 0.125 |

Test system: Pseudomonas aeruginosa
Assay: Antimicrobial activity against IMP-1 producing Pseudomonas aeruginosa SR27060 in presence of human apo-transferrin by broth microdilution method
Assay type: functional

| SMILES | MIC [µg/mL] |
| --- | --- |
| C[N+]1(CC2=C(C(=O)[O-])N3C(=O)[C@@H](NC(=O)/C(=N\O[C@@H](CNC(=O)c4ccc(O)c(O)c4Cl)C(=O)O)c4csc(N)n4)[C@H]3SC2)CCCC1 | 4 |
| NCC[N+]1(CC2=C(C(=O)[O-])N3C(=O)[C@@H](NC(=O)/C(=N\OC[C@H](NC(=O)c4ccc(O)c(O)c4Cl)C(=O)O)c4csc(N)n4)[C@H]3SC2)CCCC1 | 0.125 |
| CC(C)(O/N=C(\C(=O)N[C@@H]1C(=O)N2C(C(=O)[O-])=C(C[N+]3(C)C[C@H]4C[C@@H]3CN4C(=O)c3ccc(O)c(O)c3Cl)CS[C@H]12)c1csc(N)n1)C(=O)O (some centres undefined) | 4 |
| CC(C)(O/N=C(\C(=O)N[C@@H]1C(=O)N2C(C(=O)[O-])=C(C[N+]3(CCN)CCCC3)CS[C@H]12)c1csc(N)n1)C(=O)O | 16 |
| CC(C)(O/N=C(\C(=O)N[C@@H]1C(=O)N2C(C(=O)[O-])=C(C[N+]34CCC(CC3)N(C(=O)c3ccc(O)c(O)c3Cl)CC4)CS[C@H]12)c1csc(N)n1)C(=O)O | 4 |

Test system: Pseudomonas aeruginosa
Assay: Antimicrobial activity against Pseudomonas aeruginosa 27060deltaR1 harboring deletion of R1 plasmid in presence of human apo-transferrin by broth microdilution method
Assay type: functional

| SMILES | MIC [µg/mL] |
| --- | --- |
| C[N+]1(CC2=C(C(=O)[O-])N3C(=O)[C@@H](NC(=O)/C(=N\O[C@@H](CNC(=O)c4ccc(O)c(O)c4Cl)C(=O)O)c4csc(N)n4)[C@H]3SC2)CCCC1 | 0.5 |
| NCC[N+]1(CC2=C(C(=O)[O-])N3C(=O)[C@@H](NC(=O)/C(=N\OC[C@H](NC(=O)c4ccc(O)c(O)c4Cl)C(=O)O)c4csc(N)n4)[C@H]3SC2)CCCC1 | 0.063 |
| CC(C)(O/N=C(\C(=O)N[C@@H]1C(=O)N2C(C(=O)[O-])=C(C[N+]3(C)C[C@H]4C[C@@H]3CN4C(=O)c3ccc(O)c(O)c3Cl)CS[C@H]12)c1csc(N)n1)C(=O)O (some centres undefined) | 2 |
| CC(C)(O/N=C(\C(=O)N[C@@H]1C(=O)N2C(C(=O)[O-])=C(C[N+]3(CCN)CCCC3)CS[C@H]12)c1csc(N)n1)C(=O)O | 4 |
| CC(C)(O/N=C(\C(=O)N[C@@H]1C(=O)N2C(C(=O)[O-])=C(C[N+]34CCC(CC3)N(C(=O)c3ccc(O)c(O)c3Cl)CC4)CS[C@H]12)c1csc(N)n1)C(=O)O | 1 |

Test system: Stenotrophomonas maltophilia
Assay: Antimicrobial activity against L-1 producing Stenotrophomonas maltophilia SR21970 in presence of human apo-transferrin by broth microdilution method
Assay type: functional

| SMILES | MIC [µg/mL] |
| --- | --- |
| C[N+]1(CC2=C(C(=O)[O-])N3C(=O)[C@@H](NC(=O)/C(=N\O[C@@H](CNC(=O)c4ccc(O)c(O)c4Cl)C(=O)O)c4csc(N)n4)[C@H]3SC2)CCCC1 | 16 |
| NCC[N+]1(CC2=C(C(=O)[O-])N3C(=O)[C@@H](NC(=O)/C(=N\OC[C@H](NC(=O)c4ccc(O)c(O)c4Cl)C(=O)O)c4csc(N)n4)[C@H]3SC2)CCCC1 | > 32 |
| CC(C)(O/N=C(\C(=O)N[C@@H]1C(=O)N2C(C(=O)[O-])=C(C[N+]3(C)C[C@H]4C[C@@H]3CN4C(=O)c3ccc(O)c(O)c3Cl)CS[C@H]12)c1csc(N)n1)C(=O)O (some centres undefined) | 0.5 |
| COc1c(O)ccc(C(=O)NCC[N+]2(CC3=C(C(=O)[O-])N4C(=O)[C@@H](NC(=O)/C(=N\OC(C)(C)C(=O)O)c5csc(N)n5)[C@H]4SC3)CCCC2)c1Cl | 28 |
| CC(C)(O/N=C(\C(=O)N[C@@H]1C(=O)N2C(C(=O)[O-])=C(C[N+]3(CCN)CCCC3)CS[C@H]12)c1csc(N)n1)C(=O)O | > 32 |
| CC(C)(O/N=C(\C(=O)N[C@@H]1C(=O)N2C(C(=O)[O-])=C(C[N+]34CCC(CC3)N(C(=O)c3ccc(O)c(O)c3Cl)CC4)CS[C@H]12)c1csc(N)n1)C(=O)O | 0.125 |

Test system: Acinetobacter baumannii
Assay: Antimicrobial activity against OXA-23/OXA-58 producing Acinetobacter baumannii SR27323 in presence of human apo-transferrin by broth microdilution method
Assay type: functional

| SMILES | MIC [µg/mL] |
| --- | --- |
| C[N+]1(CC2=C(C(=O)[O-])N3C(=O)[C@@H](NC(=O)/C(=N\O[C@@H](CNC(=O)c4ccc(O)c(O)c4Cl)C(=O)O)c4csc(N)n4)[C@H]3SC2)CCCC1 | 1 |
| NCC[N+]1(CC2=C(C(=O)[O-])N3C(=O)[C@@H](NC(=O)/C(=N\OC[C@H](NC(=O)c4ccc(O)c(O)c4Cl)C(=O)O)c4csc(N)n4)[C@H]3SC2)CCCC1 | 4 |
| COc1c(O)ccc(C(=O)NCC[N+]2(CC3=C(C(=O)[O-])N4C(=O)[C@@H](NC(=O)/C(=N\OC(C)(C)C(=O)O)c5csc(N)n5)[C@H]4SC3)CCCC2)c1Cl | > 32 |
| CC(C)(O/N=C(\C(=O)N[C@@H]1C(=O)N2C(C(=O)[O-])=C(C[N+]3(CCN)CCCC3)CS[C@H]12)c1csc(N)n1)C(=O)O | 8 |

Test system: Klebsiella pneumoniae
Assay: Antimicrobial activity against KPC-2 producing Klebsiella pneumoniae ATCC BAA-1705 in presence of human apo-transferrin by broth microdilution method
Assay type: functional

| SMILES | MIC [µg/mL] |
| --- | --- |
| C[N+]1(CC2=C(C(=O)[O-])N3C(=O)[C@@H](NC(=O)/C(=N\O[C@@H](CNC(=O)c4ccc(O)c(O)c4Cl)C(=O)O)c4csc(N)n4)[C@H]3SC2)CCCC1 | 0.25 |
| NCC[N+]1(CC2=C(C(=O)[O-])N3C(=O)[C@@H](NC(=O)/C(=N\OC[C@H](NC(=O)c4ccc(O)c(O)c4Cl)C(=O)O)c4csc(N)n4)[C@H]3SC2)CCCC1 | 0.25 |
| COc1c(O)ccc(C(=O)NCC[N+]2(CC3=C(C(=O)[O-])N4C(=O)[C@@H](NC(=O)/C(=N\OC(C)(C)C(=O)O)c5csc(N)n5)[C@H]4SC3)CCCC2)c1Cl | 4 |
| CC(C)(O/N=C(\C(=O)N[C@@H]1C(=O)N2C(C(=O)[O-])=C(C[N+]3(CCN)CCCC3)CS[C@H]12)c1csc(N)n1)C(=O)O | 8 |

Test system: Escherichia coli
Assay: Antimicrobial activity against SHV-4 producing Escherichia coli ATCC BAA-200 in presence of human apo-transferrin by broth microdilution method
Assay type: functional

| SMILES | MIC [µg/mL] |
| --- | --- |
| C[N+]1(CC2=C(C(=O)[O-])N3C(=O)[C@@H](NC(=O)/C(=N\O[C@@H](CNC(=O)c4ccc(O)c(O)c4Cl)C(=O)O)c4csc(N)n4)[C@H]3SC2)CCCC1 | > 32 |
| NCC[N+]1(CC2=C(C(=O)[O-])N3C(=O)[C@@H](NC(=O)/C(=N\OC[C@H](NC(=O)c4ccc(O)c(O)c4Cl)C(=O)O)c4csc(N)n4)[C@H]3SC2)CCCC1 | > 32 |
| COc1c(O)ccc(C(=O)NCC[N+]2(CC3=C(C(=O)[O-])N4C(=O)[C@@H](NC(=O)/C(=N\OC(C)(C)C(=O)O)c5csc(N)n5)[C@H]4SC3)CCCC2)c1Cl | 16 |
| CC(C)(O/N=C(\C(=O)N[C@@H]1C(=O)N2C(C(=O)[O-])=C(C[N+]3(CCN)CCCC3)CS[C@H]12)c1csc(N)n1)C(=O)O | 16 |
